Experimental findings from patent EP2823816A1, “Inhibitors of Neuropilin and use thereof for the treatment of Neuropilin-related diseases” (Tragex Pharma, priority 2013, dated 2015) are described below.

The experiment deals with HUVEC cells. The experiment in a line: Tube formation assay. In kind it is cell-based. Particulars: HUVEC on collagen, VEGF-A165-stimulation, Figure 2. The method, then:
Collagen type I (1 mg/ml, BD) was mixed with 0.1N NaOH, 0.1% bicarbonate and 10X in medium EBM-2 and kept on ice until placed into the wells. The assay was prepared in 96-well plate format and the bottom layer of collagen was formed by adding 70 µL of the solution per well and allowing subsequent gelation at 37°C for 30 min. The HUVEC cells were then seeded on collagen at […] cells per well. After monolayer formation (one day), a second layer of collagen 200 µL per well was prepared according to the same protocol and gently placed on top of the cell layer. The compounds of the invention were added to the cells at the adhesion step (concentration corresponding to the Inhibitory Concentration 50 (IC50)). After 24 and 48 h of incubation at 37°C, tube formation was observed and pictures were taken.

On to `CCOc1ccccc1NC(=O)c1ccc(C)c(S(=O)(=O)Nc2ccc(C)cc2)c1` [Compound 1, N-(2-ethoxyphenyl)-4-methyl-3-(N-(p-tolyl)sulfamoyl)benzamide], for which the “formation of new blood vessels (tube formation)” value is “effectively inhibits the formation of new blood vessels”.
